From patent US4371537A, “Sulfur-substituted phenoxypyridines having antiviral activity” (The Dow Chemical Company, priority 1981, dated 1983)
In brackets after ≈: the same amount, converted by molar mass.

Legend:
[1] = Cytotoxicity in tissue culture testing (HeLa monolayers); assay type: cell-based; conditions: human; HeLa cells; observed at 48 and 72 hours post-treatment; read-out: Cytotoxicity: concentration of the compound found to be toxic to the cell
Method: (§1) Monolayered HeLa cells in 16 millimeter (mm) tissue culture dishes were treated with 1 ml of culture medium (Eagles medium supplemented with fetal calf serum) containing subject compound at an appropriate concentration or containing no compound at all. Culture media such as those described herein are more fully described in standard texts, as for example, Kuchler's Biochemical Methods in Cell Culture and Virology, Dowden, Hutchinson and Ross, Inc., Stroudsberg, PA (1977). Following treatment, cells were challenged with 0.05 ml of rhinovirus type 1A (RV-1A), rhinovirus type 2 (RV-2) or Coxsackie A21 virus (Cox A21) in culture medium. Some of the compounds were also tested against rhinovirus type 5 (RV-5), rhinovirus type 8 (RV-8) or rhinovirus type 64 (RV-64). Cell controls received no viruses.
^1 Cytotoxicity figures represent the concentration of the compound, […]

[2] = tested on: rhinovirus type 1A (RV-1A); assay: Tissue culture testing, rhinovirus type 1A in HeLa cells; assay type: cell-based; conditions: Enterovirus, 48 and 72 hours, NA = not active at the standard test conditions, read-out: RV-1A: lowest concentration of the compound necessary to cause a 50 percent reduction in cytopathic effect
Method: as §1
(§2) ^2 Lowest concentration of the compound (μg/ml) necessary to cause

rhinovirus type 2 (RV-2) = assay: Tissue culture testing, rhinovirus type 2 in HeLa cells; assay type: cell-based; conditions: Enterovirus, 48 and 72 hours, NA = not active at the standard test conditions, read-out: RV-2: lowest concentration of the compound necessary to cause a 50 percent reduction in cytopathic effect
Method: as §1, §2

[3] = tested on: Coxsackie A21 virus (Cox A21); assay: Tissue culture testing, Coxsackie A21 virus in HeLa cells; assay type: cell-based; conditions: 48 and 72 hours, NA = not active at the standard test conditions, read-out: Cox A21: lowest concentration of the compound necessary to cause a 50 percent reduction in cytopathic effect
Method: as §1, §2

rhinovirus type 5 (RV-5) = assay: Tissue culture testing, rhinovirus type 5 in HeLa cells; assay type: cell-based; conditions: Enterovirus, 48 and 72 hours, NA = not active at the standard test conditions, read-out: RV-5: lowest concentration of the compound necessary to cause a 50 percent reduction in cytopathic effect
Method: as §1, §2

rhinovirus type 8 (RV-8) = assay: Tissue culture testing, rhinovirus type 8 in HeLa cells; assay type: cell-based; conditions: Enterovirus, 48 and 72 hours, NA = not active at the standard test conditions, read-out: RV-8: lowest concentration of the compound necessary to cause a 50 percent reduction in cytopathic effect
Method: as §1, §2

[4] = tested on: rhinovirus type 64 (RV-64); assay: Tissue culture testing, rhinovirus type 64 in HeLa cells; assay type: cell-based; conditions: Enterovirus, 48 and 72 hours, NA = not active at the standard test conditions, read-out: RV-64: lowest concentration of the compound necessary to cause a 50 percent reduction in cytopathic effect
Method: as §1, §2

Cox A21 = assay: Single Oral Dose test in mice challenged IP with Cox A21; assay type: in vivo, Swiss male mice; conditions: 600 mg/kg P.O. 3 h after IP challenge; >3.84 significant (95% confidence level)
Method: In addition, some of the compounds were tested in animals utilizing the following procedure, hereinafter referred to as the "Single Oral Dose" test. Swiss male mice, 8-12 grams in weight were challenged intraperitoneally (IP) with 0.2 ml of a normally lethal dose, i.e., a virus dose sufficient to cause […].80-100% mortality in infected animals within 10 days of challenge of Cox A21, in phosphate buffered saline containing 1% heat inactivated fetal calf serum. Three hours later mice were treated orally (P.O.) with 0.2 ml of compound suspended in 0.5% hydroxypropyl methylcellulose (Methocel) or with 0.2 ml of 0.5% Methocel containing no compound. […] Mice were observed daily for 7-10 days post-challenge and deaths recorded. A modified Mantel-Haenzel combined chi-square procedure was used to determine significant difference between virus control and treated groups. Chi-square values greater than 3.84 are considered significant (95% confidence level) in this test.

Coxsackie A21 virus = assay: Continuous Oral Feeding test in mice challenged IP with Coxsackie A21 virus; assay type: in vivo; conditions: po, 0.06 % in diet, 240 h
Method: Some of the compounds were also tested in animals utilizing the following procedure, hereainafter referred to as the "Continuous Oral Feeding" test. Coxsackie A21 virus grown on HeLa cells was administered at a concentration that produces 80 to 100% deaths in mice weighing 8 to 12 grams within 10 days, when the mice are injected (IP) with 0.2 ml of virus preparation. Mice were placed on diets containing test compound dispersed in plain commercially available rodent mash chow at a concentration of 0.06% (weight percent) on day 0. On day 1 the mice were challenged with the virus preparation, 0.2 ml/mouse, (IP). Deaths in both control and experimental groups were recorded for the 10 days and the results analyzed by a chi-square (.chi.^2) test. Chi-square values greater than 3.84 indicate the compound is active (95% confidence level).

SMILES	MCC [1] [µg/mL]	EC50 [2] [µg/mL]	EC50 (rhinovirus type 2 (RV-2)) [µg/mL]	EC50 [3] [µg/mL]	EC50 (rhinovirus type 5 (RV-5)) [µg/mL]	EC50 (rhinovirus type 8 (RV-8)) [µg/mL]	EC50 [4] [µg/mL]	Single Oral Dose X^2 (chi-square, deaths vs virus control) (Cox A21)	Continuous Oral Feeding X^2 (chi-square, deaths vs control) (Coxsackie A21 virus)
CS(=O)(=O)c1ccc(Oc2ccc(Br)cc2)nc1 [Example 29, 2-(4-bromophenoxy)-5-(methylsulfonyl)pyridine]	50	0.625 (≈ 1.9 µM)	0.625 (≈ 1.9 µM)	5 (≈ 15.2 µM)	25 (≈ 76.2 µM)	6.25 (≈ 19 µM)	0.625 (≈ 1.9 µM)	5.275	20.885
CCS(=O)(=O)c1ccc(Oc2ccc(Oc3ccccc3)cc2)nc1 [Example 44, 5-(ethylsulfonyl)-2-(4-phenoxyphenoxy)pyridine]	6.25	6.25 (≈ 17.6 µM)	3.12 (≈ 8.79 µM)	3.12 (≈ 8.79 µM)	–	6.25 (≈ 17.6 µM)	–	0.196	1.58
